The values below come from US20250326749A1, “COMPOUNDS, COMPOSITIONS, AND METHODS OF USING THEREOF” (Sionna Therapeutics Inc., priority 2022, published 2025).

Each structure is given as a SMILES string.

T1 sequence (P13569 with tags, fused parts or gaps DEL508-508): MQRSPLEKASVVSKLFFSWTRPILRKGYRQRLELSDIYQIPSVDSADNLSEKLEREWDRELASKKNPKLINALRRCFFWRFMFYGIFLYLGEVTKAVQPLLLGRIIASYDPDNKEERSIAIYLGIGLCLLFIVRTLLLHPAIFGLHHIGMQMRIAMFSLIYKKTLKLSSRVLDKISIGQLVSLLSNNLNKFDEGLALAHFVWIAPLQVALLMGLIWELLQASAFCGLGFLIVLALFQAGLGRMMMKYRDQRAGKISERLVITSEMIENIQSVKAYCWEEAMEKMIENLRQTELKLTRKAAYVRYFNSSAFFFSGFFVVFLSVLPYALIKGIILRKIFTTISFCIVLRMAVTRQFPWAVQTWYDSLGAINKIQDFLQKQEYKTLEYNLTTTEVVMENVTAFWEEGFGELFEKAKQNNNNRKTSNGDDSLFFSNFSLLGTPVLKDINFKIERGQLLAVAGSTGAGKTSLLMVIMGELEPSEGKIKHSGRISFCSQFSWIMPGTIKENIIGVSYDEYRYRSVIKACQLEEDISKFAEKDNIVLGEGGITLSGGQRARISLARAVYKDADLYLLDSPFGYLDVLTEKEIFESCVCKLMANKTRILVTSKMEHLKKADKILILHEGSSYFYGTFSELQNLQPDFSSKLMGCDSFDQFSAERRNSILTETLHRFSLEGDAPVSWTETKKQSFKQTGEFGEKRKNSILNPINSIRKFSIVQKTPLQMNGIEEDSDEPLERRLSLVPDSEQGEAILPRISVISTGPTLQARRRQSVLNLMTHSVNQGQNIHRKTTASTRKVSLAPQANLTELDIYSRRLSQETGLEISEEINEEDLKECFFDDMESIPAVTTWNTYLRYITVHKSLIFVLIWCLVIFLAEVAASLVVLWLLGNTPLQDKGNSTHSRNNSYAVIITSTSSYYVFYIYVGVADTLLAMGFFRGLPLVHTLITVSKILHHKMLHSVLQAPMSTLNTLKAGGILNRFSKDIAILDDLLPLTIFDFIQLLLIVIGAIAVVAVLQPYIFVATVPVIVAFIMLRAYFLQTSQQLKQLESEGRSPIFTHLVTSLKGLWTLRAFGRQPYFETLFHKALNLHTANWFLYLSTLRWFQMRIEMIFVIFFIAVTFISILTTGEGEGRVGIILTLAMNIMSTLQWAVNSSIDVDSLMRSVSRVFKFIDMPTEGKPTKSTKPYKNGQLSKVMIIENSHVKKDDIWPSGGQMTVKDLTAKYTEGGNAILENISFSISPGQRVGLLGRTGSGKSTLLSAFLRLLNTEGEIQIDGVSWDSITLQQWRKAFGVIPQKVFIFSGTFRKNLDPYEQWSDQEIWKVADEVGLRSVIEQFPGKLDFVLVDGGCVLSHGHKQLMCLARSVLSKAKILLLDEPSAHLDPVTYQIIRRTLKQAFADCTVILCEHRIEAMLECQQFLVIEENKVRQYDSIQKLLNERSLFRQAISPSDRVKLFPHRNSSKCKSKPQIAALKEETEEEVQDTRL

The test has as its target T1, ΔF508-CFTR (Homo sapiens, UniProt P13569, DEL508-508).
T1 construct: expressed in transfected cells; host or cells: CFSMEo- (human CF submucosal gland epithelial cells, ΔF508/Q2X), transiently transfected by nucleofection
In words: ΔF508-CFTR-HRP trafficking assay (cell surface expression of ΔF508-CFTR). The settings on record: CFSMEo- cells transiently transfected with ΔF508-CFTR-HRP; test agent 3 μM, 48 h; HRP chemiluminescence. It is filed as cell-based. The source says:
Test agents were screened for their effect on cell surface expression of ΔF508-CFTR using the ΔF508-CFTR-HRP trafficking assay. For this assay, a ΔF508-CFTR expression construct was designed with an in-frame insertion of a horseradish peroxidase (HRP) tag into the 4th extracellular loop of CFTR. The HRP tag would be presented extracellularly, in cells transiently transfected with the ΔF508-CFTR-HRP construct, following correction of the ΔF508-CFTR trafficking defect. The quantity of ΔF508-CFTR-HRP expressed on the plasma membrane could therefore be determined by measuring an HRP-dependent signal after the application of a cell-impermeable HRP substrate.
In brief, CF submucosal gland epithelial cells (CFSMEo-), derived from the airways of a CF patient (ΔF508/Q2X) and provided by Dr. Dieter Gruenert, University of California-San Francisco, were cultured at 37° C. with 5% CO2 in minimum essential medium (MEM) with Earle's salt and nonessential amino acids, supplemented with 10% (volume per volume [v/v]) fetal bovine serum, 2 mM L-glutamine and 1× (v/v) penicillin/streptomycin and grown in tissue culture-treated flasks coated with an extracellular matrix (ECM) cocktail consisting of 10 μg/mL human fibronectin, 30 μg/mL bovine collagen type I, and 100 μg/mL bovine serum albumin in LHC basal medium. These CFSMEo^− cells were transiently transfected with 4 μg of the ΔF508-CFTR-HRP expression construct using the Lonza 4D-Nucleofector Core unit (Lonza, Catalogue No. AAF-1002B) with the X unit (Lonza, Catalogue No. AAF-1002X) and SF Cell Line 4D-Nucleofector X Kit L (Lonza, Catalogue No. V4XC-2024) according to the manufacturer's instructions and plated at 1.2×10^4 cells/well onto collagen-coated, 96-well plates (Corning Inc.). Twenty-four h post-transfection, cells were treated with test agents, solubilized in DMSO at a concentration of 3 μM in replicates of 3, and allowed to incubate for 48 h. To detect HRP expression, cell culture media was removed, cells were washed with PBS and 100 μL of Luminata Forte HRP chemiluminescent substrate (EMD Millipore, Burlington, MA) was added to each well. Following a 5-minute incubation, chemiluminescence was measured in relative luminescent units (RLUs) using an EnVision plate reader (Perkin Elmer, Waltham, MA).
The ΔF508-CFTR-HRP trafficking data was normalized to the vehicle treated control (0.3% DMSO), followed by calculation of the mean, standard deviation, and standard error. If the test agent increased cell surface expression of ΔF508-CFTR-HRP relative to the vehicle-treated control, then that test agent was considered a ΔF508-CFTR corrector. Based on the description above, the biological activity of the examples in this disclosure is collected in Table 2.
`C[C@H](Oc1cc(-n2nc(C(F)(F)F)c3c2[C@H](Oc2ccc(C(=O)O)cc2)CN(C)C3)ccn1)c1ccc2c(c1)OC(F)(F)O2` (single isomer, unassigned) [115 (P2)]: the “RLUs: ΔF508-CFTR-HRP trafficking data normalized to the vehicle treated control (0.3% DMSO)” value is reported as “C (RLU 0.0 μM-3.5 μM)”.

As for `C[C@H](Oc1cccc(-n2nc(C(F)(F)F)c3c2[C@@H](C(=O)N2CCC(C(=O)O)CC2)CCC3)c1)c1ccc2c(c1)OC(F)(F)O2` (single isomer, unassigned) [120 (P1)], the “RLUs: ΔF508-CFTR-HRP trafficking data normalized to the vehicle treated control (0.3% DMSO)” value is listed as “B (RLU 3.5 μM-5.0 μM)”.

Regarding `C[C@H](Oc1cccc(-n2nc(C(F)(F)F)c3c2[C@H](C(=O)N2CCC(C(=O)O)CC2)CCC3)c1)c1ccc2c(c1)OC(F)(F)O2` (single isomer, unassigned) [120 (P2)], the “RLUs: ΔF508-CFTR-HRP trafficking data normalized to the vehicle treated control (0.3% DMSO)” value is “C (RLU 0.0 μM-3.5 μM)”.

For the compound `C[C@H](Oc1cncc(-n2nc(C(F)(F)F)c3c2[C@@H](C(=O)N2CCC(C(=O)O)CC2)CCC3)c1)c1ccc2c(c1)OC(F)(F)O2` (single isomer, unassigned) [122 (P1)], the “RLUs: ΔF508-CFTR-HRP trafficking data normalized to the vehicle treated control (0.3% DMSO)” value is “C (RLU 0.0 μM-3.5 μM)”.

For the compound `C[C@H](Oc1cncc(-n2nc(C(F)(F)F)c3c2[C@H](C(=O)N2CCC(C(=O)O)CC2)CCC3)c1)c1ccc2c(c1)OC(F)(F)O2` (single isomer, unassigned) [122 (P2)], the “RLUs: ΔF508-CFTR-HRP trafficking data normalized to the vehicle treated control (0.3% DMSO)” value is recorded as “B (RLU 3.5 μM-5.0 μM)”.

Take `C[C@H](Oc1cncc(-n2nc(C(F)(F)F)c3c2[C@@H](CN2CCC(C(=O)O)CC2)CCC3)c1)c1ccc2c(c1)OC(F)(F)O2` (single isomer, unassigned) [124 (P1)]: the “RLUs: ΔF508-CFTR-HRP trafficking data normalized to the vehicle treated control (0.3% DMSO)” value is given as “B (RLU 3.5 μM-5.0 μM)”.

For the compound `C[C@H](Oc1cncc(-n2nc(C(F)(F)F)c3c2[C@H](CN2CCC(C(=O)O)CC2)CCC3)c1)c1ccc2c(c1)OC(F)(F)O2` (single isomer, unassigned) [124 (P2)], the “RLUs: ΔF508-CFTR-HRP trafficking data normalized to the vehicle treated control (0.3% DMSO)” value is “B (RLU 3.5 μM-5.0 μM)”.

`C[C@H](Oc1cc(-n2nc(C(F)(F)F)c3c2[C@@H](CN2CCC(C(=O)O)CC2)CCC3)ccn1)c1ccc2c(c1)OC(F)(F)O2` (single isomer, unassigned) [125 (P1)]: the “RLUs: ΔF508-CFTR-HRP trafficking data normalized to the vehicle treated control (0.3% DMSO)” value is “A (RLU 5.0 μM-10 μM)”.

`C[C@H](Oc1cc(-n2nc(C(F)(F)F)c3c2[C@H](CN2CCC(C(=O)O)CC2)CCC3)ccn1)c1ccc2c(c1)OC(F)(F)O2` (single isomer, unassigned) [125 (P2)]: the “RLUs: ΔF508-CFTR-HRP trafficking data normalized to the vehicle treated control (0.3% DMSO)” value was “A (RLU 5.0 μM-10 μM)”.

`C[C@@H](Oc1cc(-n2nc(C(F)(F)F)c3c2N(CC24CC(C(=O)O)(C2)C4)CCC3)cnn1)c1cc2c(cn1)OC(F)(F)O2` (single isomer, unassigned) [Example 1]: the “RLUs: ΔF508-CFTR-HRP trafficking data normalized to the vehicle treated control (0.3% DMSO)” value is “C (RLU 0.0 μM-3.5 μM)”.

Take `C[C@H](Oc1cc(-n2nc(C(F)(F)F)c3c2N(CC24CC(C(=O)O)(C2)C4)CCC3)cnn1)c1cc2c(cn1)OC(F)(F)O2` (single isomer, unassigned) [Example 2]: the “RLUs: ΔF508-CFTR-HRP trafficking data normalized to the vehicle treated control (0.3% DMSO)” value is “C (RLU 0.0 μM-3.5 μM)”.

Consider `C[C@@H](Oc1cc(-n2nc(C(F)(F)F)c3c2N(Cc2ccc(C(=O)O)cc2)CCC3)cnn1)c1ccc2c(c1)OC(F)(F)O2` (single isomer, unassigned) [Example 3], for which the “RLUs: ΔF508-CFTR-HRP trafficking data normalized to the vehicle treated control (0.3% DMSO)” value was “C (RLU 0.0 μM-3.5 μM)”.

Turning to `C[C@H](Oc1cc(-n2nc(C(F)(F)F)c3c2N(Cc2ccc(C(=O)O)cc2)CCC3)cnn1)c1ccc2c(c1)OC(F)(F)O2` (single isomer, unassigned) [Example 4], the “RLUs: ΔF508-CFTR-HRP trafficking data normalized to the vehicle treated control (0.3% DMSO)” value is on record as “B (RLU 3.5 μM-5.0 μM)”.

For the compound `C[C@@H](Oc1cc(-n2nc(C(F)(F)F)c3c2N(CC24CC(C(=O)O)(C2)C4)CCC3)cnn1)c1ccc2c(c1)OC(F)(F)O2` (single isomer, unassigned) [Example 5], the “RLUs: ΔF508-CFTR-HRP trafficking data normalized to the vehicle treated control (0.3% DMSO)” value is on record as “A (RLU 5.0 μM-10 μM)”.

In the case of `C[C@H](Oc1cc(-n2nc(C(F)(F)F)c3c2N(CC24CC(C(=O)O)(C2)C4)CCC3)cnn1)c1ccc2c(c1)OC(F)(F)O2` (single isomer, unassigned) [Example 6], the “RLUs: ΔF508-CFTR-HRP trafficking data normalized to the vehicle treated control (0.3% DMSO)” value is “C (RLU 0.0 μM-3.5 μM)”.

As for `C[C@H](Oc1cc(-n2nc(C(F)(F)F)c3c2N(C[C@H]2CC[C@H](C(=O)O)CC2)CCC3)ccn1)c1ccc2c(c1)OC(F)(F)O2` (single isomer, unassigned) [Example 7], the “RLUs: ΔF508-CFTR-HRP trafficking data normalized to the vehicle treated control (0.3% DMSO)” value is reported as “A (RLU 5.0 μM-10 μM)”.

On to `C[C@H](Oc1cc(-n2nc(C(F)(F)F)c3c2N(CC24CCC(C(=O)O)(CC2)CC4)CCC3)ccn1)c1ccc2c(c1)OC(F)(F)O2` (single isomer, unassigned) [Example 9], for which the “RLUs: ΔF508-CFTR-HRP trafficking data normalized to the vehicle treated control (0.3% DMSO)” value is listed as “A (RLU 5.0 μM-10 μM)”.

With `C[C@H](Oc1cncc(-n2nc(C(F)(F)F)c3c2N(Cc2ccc(C(=O)O)cc2)CCC3)c1)c1ccc2c(c1)OC(F)(F)O2` (single isomer, unassigned) [Example 12], the “RLUs: ΔF508-CFTR-HRP trafficking data normalized to the vehicle treated control (0.3% DMSO)” value was “C (RLU 0.0 μM-3.5 μM)”.

As for `C[C@H](Oc1cncc(-n2nc(C(F)(F)F)c3c2N(CC24CCC(C(=O)O)(CC2)CC4)CCC3)c1)c1ccc2c(c1)OC(F)(F)O2` (single isomer, unassigned) [Example 14], the “RLUs: ΔF508-CFTR-HRP trafficking data normalized to the vehicle treated control (0.3% DMSO)” value is recorded as “A (RLU 5.0 μM-10 μM)”.

Turning to `C[C@H](Oc1cccc(-n2nc(C(F)(F)F)c3c2N(C(=O)c2ccc(C(=O)O)cc2)CCC3)c1)c1ccc2c(c1)OC(F)(F)O2` (single isomer, unassigned) [Example 15], the “RLUs: ΔF508-CFTR-HRP trafficking data normalized to the vehicle treated control (0.3% DMSO)” value is on record as “B (RLU 3.5 μM-5.0 μM)”.

`C[C@H](Oc1cncc(-n2nc(C(F)(F)F)c3c2N(C(=O)c2ccc(C(=O)O)cc2)CCC3)c1)c1ccc2c(c1)OC(F)(F)O2` (single isomer, unassigned) [Example 16]: the “RLUs: ΔF508-CFTR-HRP trafficking data normalized to the vehicle treated control (0.3% DMSO)” value is “C (RLU 0.0 μM-3.5 μM)”.

As to `C[C@H](Oc1cncc(-n2nc(C(F)(F)F)c3c2N(C(=O)[C@H]2CC[C@H](C(=O)O)CC2)CCC3)c1)c1ccc2c(c1)OC(F)(F)O2` (single isomer, unassigned) [Example 17], the “RLUs: ΔF508-CFTR-HRP trafficking data normalized to the vehicle treated control (0.3% DMSO)” value is “C (RLU 0.0 μM-3.5 μM)”.

Turning to `C[C@H](Oc1cc(-n2nc(C(F)(F)F)c3c2[C@H](Oc2ccc(C(=O)O)cc2)CCC3)ccn1)c1ccc2c(c1)OC(F)(F)O2` (single isomer, unassigned) [Example 23], the “RLUs: ΔF508-CFTR-HRP trafficking data normalized to the vehicle treated control (0.3% DMSO)” value is “C (RLU 0.0 μM-3.5 μM)”.

Turning to `C[C@H](Oc1cccc(-n2nc(C(F)(F)F)c3c2[C@@H](Oc2ccc(C(=O)O)cc2)CCC3)c1)c1ccc2c(c1)OC(F)(F)O2` (single isomer, unassigned) [Example 25], the “RLUs: ΔF508-CFTR-HRP trafficking data normalized to the vehicle treated control (0.3% DMSO)” value is given as “B (RLU 3.5 μM-5.0 μM)”.

For the compound `C[C@H](Oc1cccc(-n2nc(C(F)(F)F)c3c2[C@H](Oc2ccc(C(=O)O)cc2)CCC3)c1)c1ccc2c(c1)OC(F)(F)O2` (single isomer, unassigned) [Example 26], the “RLUs: ΔF508-CFTR-HRP trafficking data normalized to the vehicle treated control (0.3% DMSO)” value is “A (RLU 5.0 μM-10 μM)”.

For `C[C@H](Oc1cncc(-n2nc(C(F)(F)F)c3c2[C@@H](Oc2ccc(C(=O)O)cc2)CCC3)c1)c1ccc2c(c1)OC(F)(F)O2` (single isomer, unassigned) [Example 27], the “RLUs: ΔF508-CFTR-HRP trafficking data normalized to the vehicle treated control (0.3% DMSO)” value is “C (RLU 0.0 μM-3.5 μM)”.

On to `C[C@@H](Oc1cccc(-n2nc(C(F)(F)F)c3c2C(Oc2ccc(C(=O)O)cc2)CCC3)c1)c1ccc2c(c1)OC(F)(F)O2` (single isomer, unassigned) [Example 28], for which the “RLUs: ΔF508-CFTR-HRP trafficking data normalized to the vehicle treated control (0.3% DMSO)” value was “A (RLU 5.0 μM-10 μM)”.

As for `Cc1cc(OC2CCCc3c(C(F)(F)F)nn(-c4cccc(O[C@H](C)c5cc6c(cc5F)OC(F)(F)O6)c4)c32)ccc1C(=O)O` (single isomer, unassigned) [Example 34], the “RLUs: ΔF508-CFTR-HRP trafficking data normalized to the vehicle treated control (0.3% DMSO)” value is “B (RLU 3.5 μM-5.0 μM)”.

As for `C[C@H](Oc1cc(-n2nc(C(F)(F)F)c3c2[C@@H](Oc2ccc(C(=O)O)cc2)CCC3)ccc1F)c1ccc2c(c1)OC(F)(F)O2` (single isomer, unassigned) [Example 36], the “RLUs: ΔF508-CFTR-HRP trafficking data normalized to the vehicle treated control (0.3% DMSO)” value is “C (RLU 0.0 μM-3.5 μM)”.
